# Assay results reported in PMC5502055, “Phase II study of lanreotide autogel in Japanese patients with unresectable or metastatic well-differentiated neuroendocrine tumors” (Investigational New Drugs, 2017).
# Test system: Japanese patients with grade (G) 1/G2 NET
# Experiment: Phase II and extension study: anti-tumor efficacy by RECIST ver. 1.1 (CBR, PFS, OS, ORR, sum of target lesion diameters)
# Assay type: in vivo, human
# Procedure: A phase II, multicenter, single-arm study was conducted at 10 sites in Japan. Patients were treated via deep subcutaneous (buttocks) injection of lanreotide at a dosage of 120 mg once every 4 weeks for a 48-week period. Patients who completed the phase II study were enrolled in an additional multicenter single-arm extension study that used the same dosage and injection methods and involved 7 of the 10 initial sites.
# Japanese patients with G1 or 2 (mild/moderate malignancy) NET and an age of ≥20 years were selected for the phase II study according to the World Health Organization (WHO) 2010 classification except for those whose primary tumors were located in the lungs, bronchi, or thymus (according to the WHO 2004 classification). Other inclusion criteria were the following: metastatic disease and/or a locally advanced inoperable tumor, or refusal of surgery, and target lesions based on the Response Evaluation Criteria in Solid Tumors (RECIST) ver.1.1, and a score of 0–2 on the WHO performance status. The exclusion criteria are described in the Electronic Supplementary Material. These criteria allowed the enrolment of the same target population as that of the CLARINET study: patients with G1 or 2 NET with primary tumor sites in the pancreas, midgut, hindgut, or unknown; non-functional NET except gastrinomas adequately controlled by proton pump inhibitors for 4 months or longer; and absence of multiple endocrine neoplasia.
# The primary endpoint was the clinical benefit rate (CBR) at 24 weeks after the first injection, which served to indicate and confirm the anti-tumor effects of lanreotide. The CBR was defined as the percentage of patients in the analysis set who achieved a complete response or partial response (PR) as the best overall response, or those who maintained stable disease (SD) over 24 weeks after the first injection by central review. Secondary efficacy endpoints were progression-free survival (PFS), overall survival (OS), objective response rate (ORR), and the percent change from baseline in the sum of the diameters of target lesion from baseline. The PFS was defined as the time from the first injection until progressive disease (PD) or death. Regarding tumor lesion imaging ≥4 weeks before the baseline, the investigators evaluated computed tomography (CT) or magnetic resonance imaging (MRI) data based on the RECIST (ver. 1.1). To evaluate anti-tumor effects after baseline, CT or MRI data were evaluated centrally by an independent third party based on the RECIST (ver. 1.1). During the study period, images of each patient were determined using the same method (CT or MRI), according to the standardized procedure at each site. CT or MRI was conducted every 12 weeks from the first injection. Regarding quality of life (QOL), patients completed the European Organization for Research and Treatment of Cancer (EORTC) QOL questionnaire (QLQ)-C30 (ver. 3.0) every 12 weeks during the 48 -week period after the first injection and every 24 weeks thereafter.
# Full analysis set (FAS) and CLARINET-like FAS which was satisfied eligibility criteria of the CLARINET study were used for efficacy analysis. Safety analysis set which included patients who had received the study drug at least once was used for safety analysis. Per protocol set (PPS) was used for pharmacokinetic analysis.
# In the primary analysis, the CBR point estimate at 24 weeks after the first injection and an exact F distribution-based 95% confidence interval (CI) were calculated. The CBR was selected as the primary endpoint, because maintaining SD was deemed beneficial and clinically meaningful for NET patients. In the secondary analysis, Kaplan–Meier curves of PFS and OS were prepared, and median values and 95% CIs were calculated. The ORRs at 24, 48, and 60 weeks after the first injection were also calculated. […]
# [1] = FAS n=28, printed as decreased by
smiles,measurement,setting,value
CC(C)[C@@H]1NC(=O)[C@H](CCCCN)NC(=O)[C@@H](Cc2c[nH]c3ccccc23)NC(=O)[C@H](Cc2ccc(O)cc2)NC(=O)[C@@H](NC(=O)[C@H](N)Cc2ccc3ccccc3c2)CSSC[C@@H](C(=O)N[C@H](C(N)=O)[C@@H](C)O)NC1=O [lanreotide],clinical benefit rate (CBR) at 24 weeks after the first injection,"120 mg deep s.c. every 4 weeks, full analysis set, 18/28 patients, 95% CI 44.1%, 81.4%, central review",64.3%
same,CBR at 24 weeks after the first injection,"CLARINET-like FAS, 15/22 patients, 95% CI 45.1%, 86.1%",68.2%
same,median PFS,"FAS n=28, Kaplan-Meier",9.1 months
same,median PFS,"FAS n=28, Kaplan-Meier, 95% CI 24.1, 53.1 weeks",36.3 weeks
same,"percentage change from baseline in sum of diameters of target lesion at best time point, mean ± SD (decrease)",[1],3.6 ± 21.3%
same,"percentage change from baseline in sum of diameters of target lesion at best time point, minimum value (decrease)",[1],58.5%
same,"percentage change from baseline in sum of diameters of target lesion at best time point, maximum value (increase)","FAS n=28, printed as increased by",53.4%
same,CBR Week 24,"FAS subgroup Age (years) >65, 7/12",58.3 (7/12) %
same,Median time PFS,"FAS subgroup Age (years) >65, N=12, median (95% CI)",36.64 weeks
same,CBR Week 24,"FAS subgroup Age (years) ≤65, 11/16",68.8 (11/16) %
same,Median time PFS,"FAS subgroup Age (years) ≤65, N=16, median (95% CI)","36.29 (12.29, 53.14) weeks"
same,CBR Week 24,"FAS subgroup Baseline TGR (%/month) <10, 10/13",76.9 (10/13) %
same,Median time PFS,"FAS subgroup Baseline TGR (%/month) <10, N=13, median (95% CI)",59.43 weeks
same,CBR Week 24,"FAS subgroup Baseline TGR (%/month) ≥10, 8/15",53.3 (8/15) %
same,Median time PFS,"FAS subgroup Baseline TGR (%/month) ≥10, N=15, median (95% CI)","35.29 (12.14, 37.14) weeks"
same,CBR Week 24,"FAS subgroup Grade of tumor Grade 1, 5/9",55.6 (5/9) %
same,CBR Week 24,"FAS subgroup Grade of tumor Grade 2, 13/19",68.4 (13/19) %
same,Median time PFS,"FAS subgroup Grade of tumor Grade 2, N=19, median (95% CI)","36.29 (21.29, 49.14) weeks"
same,CBR Week 24,"FAS subgroup Hepatic tumor load (%) >10 and ≤25, 4/6",66.7 (4/6) %
same,Median time PFS,"FAS subgroup Hepatic tumor load (%) >10 and ≤25, N=6, median (95% CI)",35.79 weeks
same,CBR Week 24,"FAS subgroup Hepatic tumor load (%) >25 and ≤50, 1/3",33.3 (1/3) %
same,Median time PFS,"FAS subgroup Hepatic tumor load (%) >25 and ≤50, N=3, median (95% CI)","25.14 (24.14, 37.14) weeks"
same,CBR Week 24,"FAS subgroup Hepatic tumor load (%) >50, 1/1",100.0 (1/1) %
same,CBR Week 24,"FAS subgroup Hepatic tumor load (%) ≥0 and ≤10, 12/18",66.7 (12/18) %
same,Median time PFS,"FAS subgroup Hepatic tumor load (%) ≥0 and ≤10, N=18, median (95% CI)","36.36 (21.29, 59.43) weeks"
same,CBR Week 24,"FAS subgroup Ki67 index (%) >2 and ≤5, 5/8",62.5 (5/8) %
same,Median time PFS,"FAS subgroup Ki67 index (%) >2 and ≤5, N=8, median (95% CI)",42.72 weeks
same,CBR Week 24,"FAS subgroup Ki67 index (%) >5 and <10, 8/9",88.9 (8/9) %
same,Median time PFS,"FAS subgroup Ki67 index (%) >5 and <10, N=9, median (95% CI)","36.29 (21.29, 53.14) weeks"
same,CBR Week 24,"FAS subgroup Ki67 index (%) Unknown, 0/1",0.0 (0/1) %
same,Median time PFS,"FAS subgroup Ki67 index (%) Unknown, N=1, 95% CI NC",12.14 weeks
same,CBR Week 24,"FAS subgroup Ki67 index (%) ≤ 2, 5/8",62.5 (5/8) %
same,CBR Week 24,"FAS subgroup Ki67 index (%) ≥10 and <20, 0/2",0.0 (0/2) %
same,Median time PFS,"FAS subgroup Ki67 index (%) ≥10 and <20, N=2, median (95% CI)","12.07 (12.00, 12.14) weeks"
same,CBR Week 24,"FAS subgroup Sex Female, 6/9",66.7 (6/9) %
same,Median time PFS,"FAS subgroup Sex Female, N=9, median (95% CI)",53.14 weeks
same,CBR Week 24,"FAS subgroup Sex Male, 12/19",63.2 (12/19) %
same,Median time PFS,"FAS subgroup Sex Male, N=19, median (95% CI)","36.14 (12.29, 49.14) weeks"
same,CBR Week 24,"FAS subgroup primary tumor site Foregut (except for pancreas), 0/1",0.0 (0/1) %
same,Median time PFS,"FAS subgroup primary tumor site Foregut (except for pancreas), N=1, 95% CI NC",12.00 weeks
same,CBR Week 24,"FAS subgroup primary tumor site Hindgut, 2/8",25.0 (2/8) %
same,Median time PFS,"FAS subgroup primary tumor site Hindgut, N=8, median (95% CI)","22.65 (12.14, 49.14) weeks"
same,CBR Week 24,"FAS subgroup primary tumor site Midgut, 2/2",100.0 (2/2) %
same,CBR Week 24,"FAS subgroup primary tumor site Other/ Unknown, 4/5",80.0 (4/5) %
same,Median time PFS,"FAS subgroup primary tumor site Other/ Unknown, N=5, median (95% CI)",36.14 weeks
same,CBR Week 24,"FAS subgroup primary tumor site Pancreas, 10/12",83.3 (10/12) %
same,Median time PFS,"FAS subgroup primary tumor site Pancreas, N=12, median (95% CI)","36.79 (24.14, 59.43) weeks"
same,CBR Week 24,"FAS subgroup prior treatment for NET Absent, 6/6",100.0 (6/6) %
same,CBR Week 24,"FAS subgroup prior treatment for NET Present, 12/22",54.5 (12/22) %
same,Median time PFS,"FAS subgroup prior treatment for NET Present, N=22, median (95% CI)","36.22 (12.29, 49.14) weeks"
same,CBR Week 24,"FAS subgroup progressive disease at baseline Absent, 13/17",76.5% (13/17)
same,Median time PFS,"FAS subgroup progressive disease at baseline Absent, N=17, median (95% CI)",53.14 weeks
same,CBR Week 24,"FAS subgroup progressive disease at baseline Present, 5/11",45.5% (5/11)
same,Median time PFS,"FAS subgroup progressive disease at baseline Present, N=11, median (95% CI)","25.14 (12.00, 37.14) weeks"
same,patients without increase in sum of diameters of target lesion at best time point,"FAS, 16 of 28 patients",57.1%
same,patients with PR or SD as best overall response,"FAS, 22 of 28 patients",78.6%
same,ORR at Week 60,"FAS, 1 patient with PR at 60 weeks in extension study, 95% CI 0.1%, 18.3%",3.6%
same,median OS,Kaplan-Meier,not reached
same,Forty-eight weeks survival rate,Kaplan-Meier estimate,96.4%
same,median PFS,population with PD at baseline (11 patients),6.3 months
same,median PFS,"population with PD at baseline (11 patients), 95% CI 12.0, 37.1 weeks",25.1 weeks
same,median PFS,population without PD at baseline (17 patients),13.3 months
same,median PFS,"population without PD at baseline (17 patients), 95% CI 24.1 weeks, Not calculable",53.1 weeks
